Test systems include A549 NSCLC; ACHN renal; CCRF-CEM leukemia; IGROV1 ovarian; OVCAR-4 ovarian; SK-OV-3 ovarian; HOP-92 NSCLC; HS 578T breast; NCI/ADR-RES ovarian.
Common to all, as to test: NCI-60 cell line screen, 48 h

The structures appear in SMILES notation.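 96-well plates; 48 h exposure; 5 concentrations. Endpoints by linear interpolation between flanking doses. Not reached: highest tested concentration assigned. The concentration for 50% growth inhibition is given as GI50. TGI: total growth inhibition.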

On to `COC(=O)/C(=C\c1ccc(N(CCC#N)CCC#N)cc1)NC(=O)c1cc([N+](=O)[O-])ccc1Cl`, for which the TGI in the experiment on A549 NSCLC, in the experiment with ACHN renal, in the experiment with CCRF-CEM leukemia, in the experiment on IGROV1 ovarian, with OVCAR-4 ovarian and in the experiment with SK-OV-3 ovarian was above 100 µM each time.
`O=C(O)CN(c1ccccc1)S(=O)(=O)c1ccc([N+](=O)[O-])cc1`: the TGI in the experiment on A549 NSCLC, in the experiment with ACHN renal, in the experiment on CCRF-CEM leukemia, with HOP-92 NSCLC, with IGROV1 ovarian and in the experiment with OVCAR-4 ovarian was above 100 µM in each case. In the experiment with SK-OV-3 ovarian, this compound had a TGI above 100 µM.
With `Clc1ccc(N=CNc2ccc(-c3nc4ccccc4o3)cc2)cc1`, the GI50 in the experiment with A549 NSCLC was 38 µM; with ACHN renal it was 24.4 µM; in the experiment with HOP-92 NSCLC, 57.1 µM; with HS 578T breast it was 1.89 µM; with IGROV1 ovarian it was 84.2 µM; with NCI/ADR-RES ovarian it was 7.03 µM. In addition, in the experiment with SK-OV-3 ovarian, the GI50 was 28.6 µM. Further, the TGI in the experiment on A549 NSCLC was above 100 µM; with ACHN renal it was above 100 µM; with HOP-92 NSCLC, above 100 µM; in the experiment with HS 578T breast it was 28 µM; in the experiment with IGROV1 ovarian, above 100 µM; with NCI/ADR-RES ovarian, 48.1 µM. In the experiment with SK-OV-3 ovarian, this compound registered a TGI above 100 µM.
Regarding `CCOc1ccccc1NC(=O)C(=O)Cc1nc2ccccc2s1`, the TGI in the experiment on A549 NSCLC, in the experiment with ACHN renal, with CCRF-CEM leukemia, in the experiment with HOP-92 NSCLC, in the experiment with IGROV1 ovarian and in the experiment on OVCAR-4 ovarian was above 100 µM throughout. This compound also displayed a TGI in the experiment on SK-OV-3 ovarian above 100 µM.
Take `CC(C(=O)n1c2ccccc2c2ccccc21)N(c1ccccc1)c1ccccc1` (stereo not given): the TGI was 38.5 µM with A549 NSCLC; 30.7 µM in the experiment with ACHN renal; 4.02 µM in the experiment with CCRF-CEM leukemia; 32.6 µM in the experiment with IGROV1 ovarian; 36.2 µM in the experiment with SK-OV-3 ovarian.
As for `CC(=O)OCCOCNC(=S)N/N=C/c1ccc(Br)s1`, the TGI in the experiment with A549 NSCLC, in the experiment on ACHN renal, in the experiment with CCRF-CEM leukemia, with HOP-92 NSCLC, in the experiment on IGROV1 ovarian and with OVCAR-4 ovarian was above 100 µM throughout. The same compound yielded a TGI in the experiment with SK-OV-3 ovarian above 100 µM.
Regarding `CC(=O)OC1C2CCC1C1C2C2(Cl)C(Cl)=C(Cl)C1(Cl)C2(Cl)Cl` (stereo not given), the TGI with A549 NSCLC was determined as 25.9 µM; in the experiment with ACHN renal, 25.9 µM; with HOP-92 NSCLC, 23.3 µM; with IGROV1 ovarian, 36 µM; in the experiment with OVCAR-4 ovarian, 59.8 µM; in the experiment on SK-OV-3 ovarian it was 35.3 µM.
On to `COC(=O)c1cccc2cccc(C(=O)Nc3ccc(Cl)cc3)c12`, for which the TGI in the experiment on A549 NSCLC is above 100 µM; in the experiment on ACHN renal, above 100 µM; in the experiment on CCRF-CEM leukemia, above 67.1 µM; in the experiment on HOP-92 NSCLC, above 100 µM; with IGROV1 ovarian, above 100 µM; in the experiment on OVCAR-4 ovarian, above 100 µM. Also, the TGI in the experiment with SK-OV-3 ovarian was above 100 µM.
Consider `OCC(O)CNc1ccnc2cc(Cl)ccc12` (stereo not given), for which the TGI with A549 NSCLC, in the experiment with ACHN renal, in the experiment with CCRF-CEM leukemia, in the experiment on HOP-92 NSCLC, in the experiment with IGROV1 ovarian and in the experiment on OVCAR-4 ovarian was above 100 µM throughout. This compound also came in with a TGI in the experiment with SK-OV-3 ovarian above 100 µM.
`N.N.NCCCCCCCCCN.O=C([O-])CC(=O)[O-].O=C([O-])CC(=O)[O-].[Pt+4].[Pt+4]`: the GI50 in the experiment with A549 NSCLC was above 100 µM; in the experiment with ACHN renal it was 90.3 µM; with CCRF-CEM leukemia, 21.1 µM; in the experiment on HOP-92 NSCLC, above 100 µM; in the experiment with IGROV1 ovarian it was above 100 µM; in the experiment on OVCAR-4 ovarian it was above 100 µM. In addition, the GI50 in the experiment with SK-OV-3 ovarian is above 100 µM. Further, the TGI with A549 NSCLC, in the experiment on ACHN renal, in the experiment with CCRF-CEM leukemia, in the experiment with HOP-92 NSCLC, in the experiment with IGROV1 ovarian and in the experiment with OVCAR-4 ovarian was above 100 µM throughout. In the experiment with SK-OV-3 ovarian, this compound showed a TGI above 100 µM.
In the case of `Cc1cccc(N=C2NC(=O)C(CC(=O)Nc3cccc(C)c3C)S2)c1` (stereo not given), the TGI in the experiment with A549 NSCLC, in the experiment with ACHN renal, with CCRF-CEM leukemia, with HOP-92 NSCLC, in the experiment with IGROV1 ovarian and in the experiment on OVCAR-4 ovarian was above 100 µM throughout.
`c1ccc(CSc2nc3ccccc3nc2-c2cccs2)cc1`: the TGI in the experiment with A549 NSCLC, with ACHN renal, in the experiment with CCRF-CEM leukemia, with HOP-92 NSCLC, in the experiment with IGROV1 ovarian and in the experiment with OVCAR-4 ovarian was above 100 µM throughout. Moreover, the TGI in the experiment with SK-OV-3 ovarian is above 100 µM.
Take `[F][Sn]([F])([c]1ccccc1)[c]1ccccc1`: the GI50 in the experiment on A549 NSCLC is 2.33 µM; in the experiment with ACHN renal it was 1.6 µM; with CCRF-CEM leukemia, 0.688 µM; in the experiment with HOP-92 NSCLC, 1.48 µM; in the experiment with IGROV1 ovarian it was 1.84 µM; in the experiment with OVCAR-4 ovarian it was 1.68 µM. For the same compound, the GI50 in the experiment with SK-OV-3 ovarian is 2.31 µM. Moreover, the TGI was 6.45 µM in the experiment with A549 NSCLC; 2.97 µM with ACHN renal; 3.82 µM in the experiment on CCRF-CEM leukemia; 3.13 µM with HOP-92 NSCLC; 4 µM with IGROV1 ovarian; 3.39 µM with OVCAR-4 ovarian. The TGI in the experiment with SK-OV-3 ovarian was determined as 7.49 µM.
Turning to `CCCCc1c2c(nc3c1CCC/C3=C\c1ccccc1)/C(=C/c1ccccc1)CCC2`, the TGI in the experiment on A549 NSCLC, with ACHN renal, in the experiment on CCRF-CEM leukemia, with IGROV1 ovarian and with SK-OV-3 ovarian was above 100 µM in each case.
For the compound `CN(C)CCSc1nccc(-c2cc3ccccc3s2)n1`, the TGI was 36.6 µM with A549 NSCLC; 59.4 µM with CCRF-CEM leukemia; 33.5 µM in the experiment with HOP-92 NSCLC; above 100 µM in the experiment with IGROV1 ovarian; 82.2 µM in the experiment on OVCAR-4 ovarian; 94.9 µM in the experiment with SK-OV-3 ovarian.
Turning to `CC1=C(c2cc(C(=O)Nc3ccc(Cl)cc3)nc(=S)[nH]2)Sc2ccccc2N1`, the TGI in the experiment on A549 NSCLC, in the experiment with ACHN renal, in the experiment on CCRF-CEM leukemia, with HOP-92 NSCLC, in the experiment with IGROV1 ovarian and in the experiment on OVCAR-4 ovarian was above 100 µM throughout. The same compound had a TGI in the experiment with SK-OV-3 ovarian above 100 µM.

(Values after PubChem BioAssay (NCI).)
